This is an account of results in patent US11492361B2, “Compounds useful in HIV therapy” (GlaxoSmithKline Intellectual Property Development Limited, priority 2018, dated 2022).

The subject of assay [1] is p100/p52. Put plainly: p100/p52 Western blot (WB) assay. Format: cell-based, human. The following applies: PBMC cells from healthy donors, 24 hrs, read-out: p100/p52 Western Blot (WB) EC50. The procedure:
Cell cultures were set up to evaluate several SMACm compounds. Frozen PBMC cells from healthy donors were thawed and plated in 2 ml deepwell plates at 2×10^6 cells/ml. Serial dilutions of each compound was carried out as a 7 fold 1:6 dilution with the starting final dose of 1000 nM. Cells were then combined with compound and place at 37° for 24 hrs. The following day cells were pelleted and placed at −80 until lysis.
In preparation for cell lysis, the frozen cell pellets and an aliquot of NP40 Cell Lysis Buffer (Invitrogen, Part #FNN0021), as well as an aliquot of 10× Protease Inhibitor Cocktail (Sigma, Part #P-2714) are thawed on ice. Once thawed, the complete lysis buffer is prepared by adding 10% final volume PI cocktail to the NP40 buffer and then adding in sufficient volume of 0.1 M PMSF (Sigma, Part #93482) and 1 M DTT (Sigma, Part #43816) to create a final concentration of 1 mM each in the complete lysis buffer. Cell lysis is then carried out by resuspending each cell pellet in 30 μL per 10^6 cells then incubating on ice for 30 minutes with vigorous vortexing every 10 minutes. The lysed cells are then centrifuged at 13K RPM for 10 minutes at 4° C. in a refrigerated microcentrifuge. The supernatants (lysates) are then transferred into new microcentrifuge tubes and either stored at −80° or utilized immediately for protein concentration and Western blot analysis.
Protein concentration for each lysate is determined using a detergent compatible Bradford assay (Pierce, Part #23246) following the manufacturer's microplate instructions.
Capillary Western analysis were performed using the ProteinSimple Jess System. A total of 1 ug of cell lysate was prepared according to the provided protocol supplied by ProteinSimple. The primary antibody for p100/p52 (Cell, Signaling #3017) is diluted 1:10 for use in the Jess system. The 12-230 kDa Jess Seperation Module capillary cartridges Separation Module (SM-W004) is used in conjunction with the Anti-Rabbit Secondary NIR conjugate (043-819). The Separation module includes prefilled plates that the samples, primary and secondary antibodies, as well as protein normalization reagent and diluents are loaded onto to perform separation and detection. Once the assay has run, the data is then analyzed utilizing the Compass software provided by ProteinSimple.
Alternatively to capillary electrophoresis, traditional immunoblot assays were carried out, 10 μg of cell lysate was loaded per well into 4-20% Tris-Glycine SDS-PAGE gels. Protein from the SDS-PAGE gels were transferred to Turbo Midi PVDF Transfer Packs (BioRad) using the “Mixed MW” protocol for one Midi Format Gel (constant 2.5 A up to 25V, for 7 minutes) of the Trans-Blot Turbo Transfer System (Bio-Rad) with premade Trans-Blot per the manufacturer's instructions. After transfer, PVDF membranes were blocked in 5% bovine serum albumin (BSA) in 1×TBS (BioRad) with 0.1% Tween-20 for 1 hour at room temperature with gentle rocking. Primary antibodies were added and incubated overnight at 4° C. (anti-p100/p52, Cell Signaling Technology #3017, 1:1000; anti-Actin-HRP conjugate, Abcam #49900, 1:30,000). Following primary staining, the membrane washed three times with 1× Tris Buffered Saline (TBS)+0.1% TWEEN® 20 for 10 minutes each wash. After washing, the membrane was incubated in 5% BSA in 1×TBS+0.1% TWEEN® 20 with the appropriate secondary antibody for 2 hours at room temperature. Following secondary stain the membrane was washed twice for 10 minutes with 1×TBS+0.1% TWEEN® 20 followed by a 10-minute wash with 1×TBS. The membrane was then patted dry with filter paper and an image was captured of the undeveloped membrane on the ChemiDoc MP Imaging System using Image Lab software (BioRad). Sufficient ECL reagent (GE Healthcare) was used to cover the membrane and a series of images were taken starting with 0.001 second and doubling to tripling the exposure time until the luminescence from the developed membrane saturated the image. […]

In assay [2] the test system is cell-associated HIV RNA (HIV gag RNA) in CD4+ T cells. Conditions: background statement, primary cells / resting CD4+ T cells; cited from earlier work.
Assay [3] concerns Jurkat HIV-luciferase clones. The following applies: background statement; cited from earlier work.
Assay [4] relates to p100/p52. The following applies: background statement, primary cells; cited from earlier work.

Read-outs that look alike come from different tables or passages of the source.

Consider `CN[C@H](C)C(=O)N[C@@H](C(=O)N1CCC[C@@H]1C(=O)N[C@@H]1c2ccccc2C[C@@H]1OCC#CC#CCO[C@@H]1Cc2ccccc2[C@H]1NC(=O)[C@H]1CCCN1C(=O)[C@H](NC(=O)[C@@H](C)NC)C1CCCCC1)C1CCCCC1` [AZD5582, reference compound], for which the EC50 in the assay on p100/p52 [1] worked out at 63 nM. Moreover, the “HIV caRNA induction” value in assay [2] was “increase in cell-associated HIV RNA expression”.

Regarding `CC[C@H](NC(=O)[C@H](C)NC)C(=O)N1C[C@@H](O)C[C@H]1Cc1c(-c2[nH]c3cc(F)ccc3c2C[C@@H]2C[C@H](O)CN2C(=O)[C@H](CC)NC(=O)[C@H](C)NC)[nH]c2cc(F)ccc12` [Birinapant, reference compound], in the assay with p100/p52 [1] (Homo sapiens), the EC50 amounted to 1000 nM.

With `CN[C@H](C)C(=O)N[C@@H]1CCS[C@@H]2CC(C)(C)C(C(=O)N[C@@H]3CCCc4ccccc43)N2C1=O` (stereo partly shown) [SBI-0637142], in the assay on p100/p52 [1], the EC50 lay within 100 to 1000 nM. Further, the “potency in cell line assays / Jurkat (HIV latency reversal)” value in assay [3] is reported as “potent”. For the same molecule, the p100-p52 conversion result in the assay on p100/p52 [4] was “did not exhibit activity”. In assay [2], the “HIV caRNA induction” value was “did not exhibit activity”.
